The results in this text go back to ChEMBL document CHEMBL2429807, “Synthesis and cytotoxicity of novel 4-(4-(substituted)-1H-1,2,3-triazol-1-yl)-N-phenethylbenzenesulfonamides” (Med Chem Res, 2013).

What all share (type): functional, cell-based
Assay [1] can be described thus: Cytotoxicity against human HuCCa1 cells after 48 hrs by MTT assay. As to conditions: HuCC-A1, 48 h. Background: Tetrazolium dyes change colour on reduction, which living cells bring about.
The test system of a further assay is HepG2. As to the kind of experiment: Cytotoxicity against human HepG2 cells after 48 hrs by MTT assay. As to conditions: HepG2, 48 h.
For another assay, the system named is MOLT-3. The assay can be described thus: Cytotoxicity against human MOLT3 cells after 48 hrs by XTT assay. As to conditions: MOLT-3, 48 h.
The test system of the next assay is A549. The assay can be described thus: Cytotoxicity against human A549 cells after 48 hrs by MTT assay. As to conditions: A549, 48 h.

Structures are written as SMILES. pIC50: −log10 of the molar value.

In the case of `Cc1ccccc1OCc1cn(-c2ccc(S(=O)(=O)NCCc3ccccc3)cc2)nn1`, the 50% inhibitory concentration (IC50) (in assay [1]; with A549) was more than 50 µg/mL in each case. Also, the pIC50 (usually the negative decadic logarithm of the IC50, by convention in mol/L) with HepG2 was 4.38; with MOLT-3, 4.47.
With `COc1cc([C@@H]2c3cc4c(cc3[C@@H](O[C@@H]3O[C@@H]5CO[C@@H](C)O[C@H]5[C@H](O)[C@H]3O)[C@H]3COC(=O)[C@H]23)OCO4)cc(OC)c1O` [ETOPOSIDE], the negative-log IC50 (pIC50) is 4.52 with HepG2 and 7.29 in the assay on MOLT-3.
Take `COc1ccc(CCNS(=O)(=O)c2ccc(-n3cc(COc4ccc([N+](=O)[O-])cc4)nn3)cc2)cc1OC`: the IC50 (in assay [1]; in the assay with HepG2; with A549) was more than 50 µg/mL each time. This molecule also showed a pIC50 with MOLT-3 of 5.00.
Turning to `Cc1ccc(OCc2cn(-c3ccc(S(=O)(=O)NCCc4ccccc4)cc3)nn2)cc1`, the half-maximal inhibitory concentration (IC50) (in assay [1]; in the assay with MOLT-3; in the assay with A549) was more than 50 µg/mL in each case. This molecule also had a pIC50 with HepG2 of 4.09.
On to `O=c1ccc2ccc(OCc3cn(-c4ccc(S(=O)(=O)NCCc5ccccc5)cc4)nn3)cc2o1`, for which the negative-log IC50 (pIC50) in assay [1] is 4.79; in the assay on HepG2, 4.91; in the assay with MOLT-3 it was 4.05; in the assay with A549, 4.71.
In the case of `COc1ccc(C=O)cc1OCc1cn(-c2ccc(S(=O)(=O)NCCc3ccccc3)cc2)nn1`, the IC50 (commonly the point on the concentration scale where inhibition reaches its midpoint) in assay [1] is more than 50 µg/mL. Moreover, the figures for the negative logarithm of the IC50 (pIC50) in the assay on HepG2, in the assay on MOLT-3 and with A549 were 4.46, 4.99 and 4.41, respectively.
As to `O=S(=O)(NCCc1ccccc1)c1ccc(-n2cc(COc3ccc4ccccc4c3)nn2)cc1`, the IC50 (in assay [1]; in the assay with A549) was more than 50 µg/mL in each case. Further, the figures for the pIC50 with HepG2 and in the assay on MOLT-3 were 4.55 and 4.13, respectively.
Consider `O=[N+]([O-])c1ccc(OCc2cn(-c3ccc(S(=O)(=O)NCCc4ccccc4)cc3)nn2)cc1`, for which the 50% inhibitory concentration (IC50) (in assay [1]; in the assay with HepG2; in the assay on A549) was more than 50 µg/mL in each case. The molecule further showed a pIC50 with MOLT-3 of 4.21.
Regarding `Nc1ccc(S(=O)(=O)NCCc2ccccc2)cc1`, the IC50 (in assay [1]; with HepG2; in the assay on A549) was more than 50 µg/mL throughout. Also, in the assay on MOLT-3, the pIC50 is 3.78.
The molecule `COc1cc(C=O)ccc1OCc1cn(-c2ccc(S(=O)(=O)NCCc3ccccc3)cc2)nn1` returned an IC50 in assay [1] of more than 50 µg/mL. Further, the pIC50 with HepG2 was 4.24; with MOLT-3 it was 5.04; in the assay on A549 it was 4.10.
On to `COC(=O)c1ccccc1OCc1cn(-c2ccc(S(=O)(=O)NCCc3ccccc3)cc2)nn1`, for which the IC50 (in assay [1]; in the assay with A549) was more than 50 µg/mL throughout. The pIC50 in the assay with HepG2 is 4.31; in the assay on MOLT-3 it was 5.06.
In turn, `COc1ccc(CCNS(=O)(=O)c2ccc(-n3cc(-c4ccccc4)nn3)cc2)cc1OC` had a concentration for half-maximal inhibition (IC50) in assay [1] of more than 50 µg/mL. For the same molecule, the negative logarithm of the IC50 (pIC50) in the assay with HepG2 was 4.62; in the assay on MOLT-3, 4.21; in the assay on A549 it was 4.74.
As to `COc1cccc2c1C(=O)c1c(O)c3c(c(O)c1C2=O)C[C@@](O)(C(=O)CO)C[C@@H]3O[C@H]1C[C@H](N)[C@H](O)[C@H](C)O1` [DOXORUBICIN], the negative logarithm of the IC50 (pIC50) is 6.08 in assay [1], 6.10 in the assay on HepG2 and 6.36 in the assay with A549.
As for `O=Cc1ccc(OCc2cn(-c3ccc(S(=O)(=O)NCCc4ccccc4)cc3)nn2)cc1`, the pIC50 was 4.06 in assay [1], 4.00 with HepG2 and 4.49 with MOLT-3. In the assay with A549, this molecule gave an IC50 of more than 50 µg/mL.
Take `COc1ccc(CCNS(=O)(=O)c2ccc(N=[N+]=[N-])cc2)cc1OC`: the IC50 (in assay [1]; in the assay with A549) was more than 50 µg/mL throughout. The pIC50 with HepG2 is 3.91; in the assay with MOLT-3 it was 4.31.
Turning to `O=S(=O)(NCCc1ccccc1)c1ccc(-n2cc(-c3ccccc3)nn2)cc1`, the negative logarithm of the IC50 (pIC50) in assay [1] is 5.06; in the assay on HepG2 it was 5.04; in the assay on A549, 4.46. The IC50 with MOLT-3 is more than 50 µg/mL.
For `COc1ccc(CCNS(=O)(=O)c2ccc(N)cc2)cc1OC`, the IC50 (in assay [1]; in the assay on HepG2; with A549) was more than 50 µg/mL each time. The same molecule showed a pIC50 in the assay with MOLT-3 of 3.98.
On to `[N-]=[N+]=Nc1ccc(S(=O)(=O)NCCc2ccccc2)cc1`, for which the IC50 in assay [1] was more than 50 µg/mL. The figures for the negative logarithm of the IC50 (pIC50) with HepG2, in the assay on MOLT-3 and in the assay on A549 were 4.03, 4.22 and 3.86, respectively.
On to `O=c1cc(OCc2cn(-c3ccc(S(=O)(=O)NCCc4ccccc4)cc3)nn2)c2ccccc2o1`, for which the IC50 (in assay [1]; in the assay on HepG2; in the assay on A549) was more than 50 µg/mL throughout. In the assay with MOLT-3, the pIC50 was 4.97.
For the molecule `O=S(=O)(NCCc1ccccc1)c1ccc(-n2cc(COc3cccc4ccccc34)nn2)cc1`, the half-maximal inhibitory concentration (IC50) (in assay [1]; in the assay on HepG2; in the assay on MOLT-3; in the assay on A549) was more than 50 µg/mL each time.
In the case of `COc1ccc(CCNS(=O)(=O)c2ccc(-n3cc(COc4ccc(C=O)cc4)nn3)cc2)cc1OC`, the concentration for half-maximal inhibition (IC50) (in assay [1]; in the assay with HepG2) was more than 50 µg/mL each time. The pIC50 is 4.76 in the assay with MOLT-3 and 4.55 with A549.
Consider `O=S(=O)(NCCc1ccccc1)c1ccc(-n2cc(COc3ccccc3)nn2)cc1`, for which the IC50 (in assay [1]; in the assay on MOLT-3; in the assay on A549) was more than 50 µg/mL in each case. The molecule also gave a negative-log IC50 (pIC50) in the assay on HepG2 of 4.24.
